The values that follow come from patent US7582645B2, “Pyrimidine derivatives for treatment of hyperproliferative disorders” (Bayer Pharmaceuticals Corporation, priority 2003, dated 2009).

Molecules are shown by their SMILES. Structures can show the parent of a compound that is named as a salt.

The first assay concerns HCT116 cells. As to the kind of experiment: HCT116 cytotoxic activity assay (Alamar Blue, 72 h). In kind it is cell-based. To be noted: Homo sapiens, HCT-116, 72 h compound exposure, greater than 500 nM but less than or equal to 2 μM. As to the method:
Representative compounds of this invention were tested for cytotoxicity using the above-described assay procedure with the following results: […]
For the compound `Cc1cc(Oc2ccc(Nc3cc(-c4ccccc4N)nc(N)n3)cc2)ccn1` [Example 322, 6-(2-aminophenyl)-N4*-{4-[(2-methylpyridin-4-yl)oxy]phenyl} pyrimidine-2,4-diamine], the IC50 was 500 to 2000 nM.

Compound `Cc1cc(Oc2ccc(Nc3cc(-c4ccc(Oc5ccccc5)cc4)nc(N)n3)cc2)ccn1` [Example 304, N4*-{4-[(2-methylpyridin-4-yl)oxy]phenyl}-6-(4-phenoxyphenyl) pyrimidine-2,4-diamine] gave an IC50 of 500 to 2000 nM.

`N#Cc1cccc(-c2cc(Nc3ccc(Oc4ccnc(C(F)(F)F)c4)cc3)nc(N)n2)c1` [Example 198, 3-{2-amino-6-[(4-{[2-(trifluoromethyl)pyridin-4-yl]oxy}phenyl)amino]pyrimidin-4-yl}benzonitrile] returned an IC50 of 500 to 2000 nM. With `N#Cc1cc(Oc2ccc(Nc3cc(-c4ccc(F)cc4)nc(N)n3)cc2)ccn1` [Example 75, 4-(4-{[2-amino-6-(4-fluorophenyl)pyrimidin-4-yl]amino}phenoxy) pyridine-2-carbonitrile], the half-inhibitory concentration (IC50) is 500 to 2000 nM. As for `Nc1nc(Nc2ccc(Oc3ccnc(C(F)(F)F)c3)cc2)cc(-c2ccc(Cl)c(Cl)c2)n1` [Example 112, 6-(3,4-dichlorophenyl)-N4*-(4-{[2-(trifluoromethyl)pyridin-4-yl]oxy}phenyl)pyrimidine-2,4-diamine], the IC50 was in the range of 500 to 2000 nM.

`Nc1nc(Nc2ccc(Oc3cc(N4CCOCC4)ccn3)cc2)cc(-c2ccccc2)n1` [Example 105, N4*-{4-[(4-morpholin-4-ylpyridin-2-yl)oxy]phenyl}-6-phenylpyrimidine-2,4-diamine] registered an IC50 of 500 to 2000 nM. Still for that read-out and setting: to `NC(=O)c1cc(Oc2cccc(Nc3cc(-c4cccc(N)c4)nc(N)n3)c2)ccn1` [Example 283, 4-(3-{[2-amino-6-(3-aminophenyl)pyrimidin-4-yl]amino}phenoxy) pyridine-2-carboxamide] belongs 500 to 2000 nM.

As to `CCSc1ccc(-c2cc(Nc3ccc(Oc4ccnc(C(F)(F)F)c4)cc3)nc(N)n2)cc1` [Example 207, 6-[4-(ethylthio)phenyl]-N4*-(4-{[2-(trifluoromethyl)pyridin-4-yl]oxy}phenyl)pyrimidine-2,4-diamine], the IC50 lay within 500 to 2000 nM.

Take `NC(=O)c1cc(Oc2ccc(Nc3cc(-c4cc(F)cc(F)c4)nc(N)n3)cc2)ccn1` [Example 279, 4-(4-{[2-amino-6-(3,5-difluorophenyl)pyrimidin-4-yl]amino}phenoxy)pyridine-2-carboxamide]: the IC50 lay in the range of 500 to 2000 nM.

Staying with this assay, now noted: Homo sapiens, HCT-116, 72 h compound exposure, greater than 2 μM.
Take `COc1ccc(-c2cc(Nc3ccc(Oc4ccnc(C#N)c4)cc3)nc(N)n2)cc1OC` [Example 224, 4-(4-{[2-amino-6-(3,4-dimethoxyphenyl)pyrimidin-4-yl]amino}phenoxy)pyridine-2-carbonitrile]: the IC50 is over 2000 nM. On the same count and under the same terms, to `COc1ncc(-c2cc(Nc3ccc(Oc4ccnc(C#N)c4)cc3)nc(N)n2)c(OC)n1` [Example 237, 4-{4-[(2-amino-2′,4′-dimethoxy-4,5′-bipyrimidin-6-yl)amino]phenoxy} pyridine-2-carbonitrile] belongs over 2000 nM; to `Cc1cc(Oc2ccc(Nc3cc(-c4ccc(OC(F)(F)F)cc4)nc(N)n3)cc2)ccn1` [Example 307, N4*-{4-[(2-methylpyridin-4-yl)oxy]phenyl}-6-[4-(trifluoromethoxy)phenyl]pyrimidine-2,4-diamine], over 2000 nM.

The same assay, now with this note: Homo sapiens, HCT-116, 72 h compound exposure, less than or equal to 500 nM.
Turning to `CC1CCCN1c1cc(Oc2cccc(Nc3cc(-c4ccccc4)nc(N)n3)c2)ccn1` (centres unmarked) [Example 125, N4*-(3-{[2-(2-methylpyrrolidin-1-yl)pyridin-4-yl]oxy}phenyl)-6-phenylpyrimidine-2,4-diamine], the IC50 is at most 500 nM. `Nc1nc(Nc2ccc(Oc3ccnc(C(F)(F)F)c3)cc2)cc(-c2ccc(OS(N)(=O)=O)cc2)n1` [Example 52, sulfamic acid, 4-{2-amino-6-[4-(2-trifluoromethylpyridin-4-yloxy)phenylamino]pyrimidin-4-yl}phenyl ester] came in with an IC50 of at most 500 nM. Regarding `Nc1nc(Nc2ccc(Oc3cc[n+]([O-])c(C(F)(F)F)c3)cc2)cc(-c2ccccc2)n1` [Example 38, N^4-(4-{[1-oxido-2-(trifluoromethyl)pyridin-4-yl]oxy}phenyl)-6-phenylpyrimidine-2,4-diamine], the IC50 is at most 500 nM.

In turn, `CCc1cccc(-c2cc(Nc3ccc(Oc4ccnc(C(F)(F)F)c4)cc3)nc(N)n2)c1` [Example 200, 6-(3-ethylphenyl)-N4*-(4-{[2-(trifluoromethyl)pyridin-4-yl]oxy}phenyl)pyrimidine-2,4-diamine] yielded an IC50 of at most 500 nM. The same measure, in the same setting: then `Nc1nc(Nc2cccc(Oc3ccnc(N4CCC[C@@H]4CO)c3)c2)cc(-c2ccccc2)n1` [Example 123, [(2R)-1-(4-{3-[(2-amino-6-phenylpyrimidin-4-yl)amino]phenoxy}pyridin-2-yl)pyrrolidin-2-yl]methanol], with at most 500 nM; and `COCCN(C)c1cc(Oc2cccc(Nc3cc(-c4ccccc4)nc(N)n3)c2)ccn1` [Example 124, N4*-[3-({2-[(2-methoxyethyl)(methyl)amino]pyridin-4-yl}oxy)phenyl]-6-phenylpyrimidine-2,4-diamine], with at most 500 nM; and `N#Cc1cc(Oc2ccc(Nc3cc(-c4cccc(F)c4)nc(N)n3)cc2)ccn1` [Example 240, 4-(4-{[2-amino-6-(3-fluorophenyl)pyrimidin-4-yl]amino}phenoxy) pyridine-2-carbonitrile], with at most 500 nM. In turn, `Nc1nc(Nc2ccc(Oc3ccnc(C(F)(F)F)c3)cc2)cc(-c2ccc(NC(=O)[C@@H](N)CO)cc2)n1` [Example 50, 2-amino-N-(4-{2-amino-6-[4-(2-trifluoromethylpyridin-4-yloxy)phenylamino]pyrimidin-4-yl}phenyl)-3-hydroxypropionamide] gave an IC50 of at most 500 nM. Compound `N#Cc1cc(Cc2ccc(Nc3cc(-c4ccccc4)nc(N)n3)cc2)ccn1` [Example 35, 4-[4-(2-amino-6-phenyl-pyrimidin-4-ylamino)-benzyl]-pyridine-2-carbonitrile] displayed an IC50 of at most 500 nM. Take `COCCN(CCOC)c1cc(Oc2ccc(Nc3cc(-c4ccccc4)nc(N)n3)cc2)ccn1` [Example 140, N4*-[4-({2-[bis(2-methoxyethyl)amino]pyridin-4-yl}oxy)phenyl]-6-phenylpyrimidine-2,4-diamine]: the IC50 is at most 500 nM. Same read-out and setting: to `CCOc1ccccc1-c1cc(Nc2ccc(Oc3ccnc(C(F)(F)F)c3)cc2)nc(N)n1` [Example 157, 6-(2-ethoxyphenyl)-N4*-(4-{[2-(trifluoromethyl)pyridin-4-yl]oxy}phenyl) pyrimidine-2,4-diamine] belongs at most 500 nM; to `N#Cc1cc(Oc2ccc(Nc3cc(-c4ccccc4)nc(N)n3)c(F)c2)ccn1` [Example 6, 4-{4-[(2-amino-6-phenylpyrimidin-4-yl)amino]-3-fluorophenoxy} pyridine-2-carbonitrile hydrochloride], at most 500 nM; to `Cc1cc(Oc2ccc(Nc3cc(-c4cccc(N(C)C)c4)nc(N)n3)cc2)ccn1` [Example 305, 6-[3-(dimethylamino)phenyl]-N4*- {4-[(2-methylpyridin-4-yl)oxy]phenyl}pyrimidine-2,4-diamine], at most 500 nM. On the same count and under the same terms, to `COc1ccc(-c2cc(Nc3ccc(Oc4ccnc(C)c4)cc3)nc(N)n2)cn1` [Example 312, 6-(6-methoxypyridin-3-yl)-N4*-{4-[(2-methylpyridin-4-yl)oxy]phenyl} pyrimidine-2,4-diamine] belongs at most 500 nM. Same read-out and setting: then `Nc1nc(Nc2ccc(Oc3ccnc(C(F)(F)F)c3)cc2)cc(-c2ccccc2)n1` [Example 37, 6-phenyl-N^4-(4-{[2-(trifluoromethyl)pyridin-4-yl]oxy}phenyl)pyrimidine-2,4-diamine], with at most 500 nM; and `CCOc1cccc(-c2cc(Nc3ccc(Oc4ccnc(C(N)=O)c4)cc3)nc(N)n2)c1` [Example 273, 4-(4-{[2-amino-6-(3-ethoxyphenyl)pyrimidin-4-yl]amino}phenoxy) pyridine-2-carboxamide], with at most 500 nM. On to `NC(=O)c1cc(Oc2ccc(Nc3cc(-c4ccsc4)nc(N)n3)cc2)ccn1` [Example 269, 4-(4-{[2-amino-6-(3-thienyl)pyrimidin-4-yl]amino}phenoxy) pyridine-2-carboxamide], for which the IC50 was at most 500 nM. On to `Nc1nc(Nc2ccc(Oc3ccnc(C(F)(F)F)c3)cc2)cc(-c2ccccc2CO)n1` [Example 175, (2-{2-amino-6-[(4-{[2-(trifluoromethyl)pyridin-4-yl]oxy}phenyl)amino]pyrimidin-4-yl}phenyl) methanol], for which the IC50 was at most 500 nM.

The compound `Nc1ccc(-c2cc(Nc3ccc(Oc4ccnc(Cl)c4)cc3)nc(N)n2)cc1` [Example 116, 6-(4-aminophenyl)-N4*- {4-[(2-chloropyridin-4-yl)oxy]phenyl}pyrimidine-2,4-diamine] showed a 50% inhibitory concentration (IC50) of at most 500 nM.

The compound `Cc1ccc(-c2cc(Nc3ccc(Oc4ccnc(C(N)=O)c4)cc3)nc(N)n2)cc1N` [Example 271, 4-(4-{[2-amino-6-(3-amino-4-methylphenyl)pyrimidin-4-yl]amino}phenoxy)pyridine-2-carboxamide] yielded an IC50 of at most 500 nM. Take `COc1ccc(C(C)C)cc1-c1cc(Nc2ccc(Oc3ccnc(C(N)=O)c3)cc2)nc(N)n1` [Example 262, 4-(4-{[2-amino-6-(5-isopropyl-2-methoxyphenyl)pyrimidin-4-yl]amino}phenoxy)pyridine-2-carboxamide]: the IC50 was at most 500 nM. `COc1ccc(-c2cc(Nc3ccc(Oc4ccnc(C#N)c4)cc3)nc(N)n2)cn1` [Example 223, 4-(4-{[2-amino-6-(6-methoxypyridin-3-yl)pyrimidin-4-yl]amino}phenoxy) pyridine-2-carbonitrile] gave an IC50 of at most 500 nM.

In turn, `COc1ccc(OC)c(-c2cc(Nc3ccc(Oc4ccnc(C(F)(F)F)c4)cc3)nc(N)n2)c1` [Example 215, 6-(2,5-dimethoxyphenyl)-N4*-(4-{[2-(trifluoromethyl)pyridin-4-yl]oxy}phenyl)pyrimidine-2,4-diamine] gave an IC50 of at most 500 nM.
